PubChem BioAssay (NCI)
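Briefly, cells in 96-well plates were exposed to five compound concentrations for 48 h, and endpoints were estimated by linear interpolation. Definition used: TGI = concentration required for complete inhibition of growth.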

Test system: HS 578T breast
Assay: DTP human tumour cell line panel, 48 h

Point of comparison: O=[N+]([O-])C(=C(Sc1ccccc1)Sc1ccccc1)C(Cl)=C(Cl)Cl, TGI 17.6 µM. Against it:
- COC(=O)CCCC(=O)C(=Nc1c(Cl)cccc1Cl)NNc1ccc(Cl)cc1 — higher, > 100 µM

Test system: T-47D breast
Assay: DTP human tumour cell line panel, 48 h

Point of comparison: O=[N+]([O-])C(=C(Sc1ccccc1)Sc1ccccc1)C(Cl)=C(Cl)Cl, TGI 1.14 µM. Against it:
- COc1cc2c(NCCCCCCO[N+](=O)[O-])ncnc2c(OC)c1OC — higher, > 93.2 µM
- CC(=O)OCC1OC(n2c(=S)[nH]c(-c3ccccc3)c(C#N)c2=O)C(OC(C)=O)C(OC(C)=O)C1OC(C)=O (centres undefined) — higher, > 100 µM
- CCOC(=O)c1c(SCCN2CCCC2)n(-c2ccccc2)c(=S)n(-c2ccccc2)c1=O — 8.3-fold higher, 9.41 µM
- COC(=O)CCCC(=O)C(=Nc1c(Cl)cccc1Cl)NNc1ccc(Cl)cc1 — higher, > 100 µM

Test system: HCC-2998 colon
Assay: DTP human tumour cell line panel, 48 h

Point of comparison: CCOC(=O)c1c(SCCN2CCCC2)n(-c2ccccc2)c(=S)n(-c2ccccc2)c1=O, TGI 3.53 µM. Against it:
- COc1cc2c(NCCCCCCO[N+](=O)[O-])ncnc2c(OC)c1OC — 4.9-fold higher, 17.2 µM
- O=C(O)c1cc(S(=O)(=O)N=NC=C2c3ccccc3N(O)c3ccccc32)ccc1O — 11-fold higher, 37.9 µM
- CC(=O)OCC1OC(n2c(=S)[nH]c(-c3ccccc3)c(C#N)c2=O)C(OC(C)=O)C(OC(C)=O)C1OC(C)=O (centres undefined) — higher, > 100 µM
- COC(=O)CCCC(=O)C(=Nc1c(Cl)cccc1Cl)NNc1ccc(Cl)cc1 — higher, > 100 µM
- O=[N+]([O-])C(=C(Sc1ccccc1)Sc1ccccc1)C(Cl)=C(Cl)Cl — within 1.5-fold, 4.4 µM

Test system: KM12 colon
Assay: DTP human tumour cell line panel, 48 h

Point of comparison: CCOC(=O)c1c(SCCN2CCCC2)n(-c2ccccc2)c(=S)n(-c2ccccc2)c1=O, TGI 29.8 µM. Against it:
- O=C1C(Cl)N(c2ccccc2)C1c1c[nH]c2ccccc12 (centres undefined) — higher, > 100 µM
- COc1cc2c(NCCCCCCO[N+](=O)[O-])ncnc2c(OC)c1OC — within 1.5-fold, 33.5 µM
- O=C(O)c1cc(S(=O)(=O)N=NC=C2c3ccccc3N(O)c3ccccc32)ccc1O — higher, > 100 µM
- CC(=O)OCC1OC(n2c(=S)[nH]c(-c3ccccc3)c(C#N)c2=O)C(OC(C)=O)C(OC(C)=O)C1OC(C)=O (centres undefined) — higher, > 100 µM
- COC(=O)CCCC(=O)C(=Nc1c(Cl)cccc1Cl)NNc1ccc(Cl)cc1 — higher, > 100 µM
- O=[N+]([O-])C(=C(Sc1ccccc1)Sc1ccccc1)C(Cl)=C(Cl)Cl — 4.2-fold lower, 7.03 µM

Test system: CAKI-1 renal
Assay: DTP human tumour cell line panel, 48 h

Point of comparison: O=[N+]([O-])C(=C(Sc1ccccc1)Sc1ccccc1)C(Cl)=C(Cl)Cl, TGI 1.61 µM. Against it:
- COc1cc2c(NCCCCCCO[N+](=O)[O-])ncnc2c(OC)c1OC — 39-fold higher, 62.3 µM
- O=C(O)c1cc(S(=O)(=O)N=NC=C2c3ccccc3N(O)c3ccccc32)ccc1O — higher, > 100 µM
- CC(=O)OCC1OC(n2c(=S)[nH]c(-c3ccccc3)c(C#N)c2=O)C(OC(C)=O)C(OC(C)=O)C1OC(C)=O (centres undefined) — higher, > 100 µM
- CCOC(=O)c1c(SCCN2CCCC2)n(-c2ccccc2)c(=S)n(-c2ccccc2)c1=O — 3.2-fold higher, 5.23 µM
- COC(=O)CCCC(=O)C(=Nc1c(Cl)cccc1Cl)NNc1ccc(Cl)cc1 — higher, > 100 µM

Test system: COLO 205 colon
Assay: DTP human tumour cell line panel, 48 h

Point of comparison: CCOC(=O)c1c(SCCN2CCCC2)n(-c2ccccc2)c(=S)n(-c2ccccc2)c1=O, TGI 3.53 µM. Against it:
- O=C1C(Cl)N(c2ccccc2)C1c1c[nH]c2ccccc12 (centres undefined) — higher, > 100 µM
- COc1cc2c(NCCCCCCO[N+](=O)[O-])ncnc2c(OC)c1OC — 15-fold higher, 51.6 µM
- O=C(O)c1cc(S(=O)(=O)N=NC=C2c3ccccc3N(O)c3ccccc32)ccc1O — 11-fold higher, 37.6 µM
- CC(=O)OCC1OC(n2c(=S)[nH]c(-c3ccccc3)c(C#N)c2=O)C(OC(C)=O)C(OC(C)=O)C1OC(C)=O (centres undefined) — higher, > 100 µM
- COC(=O)CCCC(=O)C(=Nc1c(Cl)cccc1Cl)NNc1ccc(Cl)cc1 — 23-fold higher, 82.4 µM
- O=[N+]([O-])C(=C(Sc1ccccc1)Sc1ccccc1)C(Cl)=C(Cl)Cl — 5.1-fold lower, 0.697 µM

Test system: OVCAR-8 ovarian
Assay: DTP human tumour cell line panel, 48 h

Point of comparison: CCOC(=O)c1c(SCCN2CCCC2)n(-c2ccccc2)c(=S)n(-c2ccccc2)c1=O, TGI 4.29 µM. Against it:
- O=C1C(Cl)N(c2ccccc2)C1c1c[nH]c2ccccc12 (centres undefined) — higher, > 100 µM
- COc1cc2c(NCCCCCCO[N+](=O)[O-])ncnc2c(OC)c1OC — 15-fold higher, 64.4 µM
- O=C(O)c1cc(S(=O)(=O)N=NC=C2c3ccccc3N(O)c3ccccc32)ccc1O — higher, > 100 µM
- CC(=O)OCC1OC(n2c(=S)[nH]c(-c3ccccc3)c(C#N)c2=O)C(OC(C)=O)C(OC(C)=O)C1OC(C)=O (centres undefined) — higher, > 100 µM
- COC(=O)CCCC(=O)C(=Nc1c(Cl)cccc1Cl)NNc1ccc(Cl)cc1 — higher, > 100 µM
- O=[N+]([O-])C(=C(Sc1ccccc1)Sc1ccccc1)C(Cl)=C(Cl)Cl — 5.2-fold lower, 0.831 µM

Test system: UO-31 renal
Assay: DTP human tumour cell line panel, 48 h

Point of comparison: COc1cc2c(NCCCCCCO[N+](=O)[O-])ncnc2c(OC)c1OC, TGI 21.2 µM. Against it:
- O=C1C(Cl)N(c2ccccc2)C1c1c[nH]c2ccccc12 (centres undefined) — higher, > 100 µM
- O=C(O)c1cc(S(=O)(=O)N=NC=C2c3ccccc3N(O)c3ccccc32)ccc1O — 2.3-fold higher, 49.5 µM
- CC(=O)OCC1OC(n2c(=S)[nH]c(-c3ccccc3)c(C#N)c2=O)C(OC(C)=O)C(OC(C)=O)C1OC(C)=O (centres undefined) — higher, > 100 µM
- COC(=O)CCCC(=O)C(=Nc1c(Cl)cccc1Cl)NNc1ccc(Cl)cc1 — higher, > 100 µM
- O=[N+]([O-])C(=C(Sc1ccccc1)Sc1ccccc1)C(Cl)=C(Cl)Cl — 53-fold lower, 0.402 µM

Test system: HOP-18 NSCLC
Assay: DTP human tumour cell line panel, 48 h

Work on O=C(O)c1cc(S(=O)(=O)N=NC=C2c3ccccc3N(O)c3ccccc32)ccc1O yielded a TGI of 85.4 µM.

Test system: SK-MEL-5 melanoma
Assay: DTP human tumour cell line panel, 48 h

Point of comparison: COc1cc2c(NCCCCCCO[N+](=O)[O-])ncnc2c(OC)c1OC, TGI 25 µM. Against it:
- O=C1C(Cl)N(c2ccccc2)C1c1c[nH]c2ccccc12 (centres undefined) — higher, > 100 µM
